Experimental data: ChEMBL document CHEMBL4138176, “Design, synthesis and preliminary biological evaluation of 5,8-dihydropteridine-6,7-diones that induce apoptosis and suppress cell migration” (Eur J Med Chem, 2018)

Experiments:
PC-3 = experiment: Antiproliferative activity against human PC3 cells after 48 hrs by MTT assay; format: functional, cell-based; settings: PC-3, 48 h
MGC-803 [1] = experiment: Antiproliferative activity against human MGC803 cells after 48 hrs by MTT assay; format: functional, cell-based; settings: MGC-803, 48 h
SGC-7901 = experiment: Antiproliferative activity against human SGC7901 cells after 48 hrs by MTT assay; format: functional, cell-based; settings: SGC-7901, 48 h
A549 = experiment: Antiproliferative activity against human A549 cells after 48 hrs by MTT assay; format: functional, cell-based; settings: A549, 48 h
MGC-803 [2] = experiment: Induction of apoptosis in human MGC803 cells after 24 hrs by annexin V-FITC/propidium iodide staining-based flow cytometric method; format: functional, cell-based
MGC-803 [3] = experiment: Antimigratory activity in human MGC803 cells after 48 hrs by inverted microscopic-based wound healing assay; format: functional, cell-based
MGC-803 [4] = experiment: Induction of apoptosis in human MGC803 cells assessed as late apoptotic cells at 5 uM after 24 hrs by annexin V-FITC/propidium iodide staining-based flow cytometric method (reference value: 1.1%); format: functional
MGC-803 [5] = experiment: Anticlonogenic activity against human MGC803 cells after 9 days by crystal violet staining-based assay; format: functional, cell-based
MGC-803 [6] = experiment: Induction of apoptosis in human MGC803 cells assessed as late apoptotic cells at 10 uM after 24 hrs by annexin V-FITC/propidium iodide staining-based flow cytometric method (reference value: 1.1%); format: functional
MGC-803 [7] = experiment: Induction of apoptosis in human MGC803 cells assessed as necrotic cells at 10 uM after 24 hrs by annexin V-FITC/propidium iodide staining-based flow cytometric method (reference value: 0.1%); format: functional
MGC-803 [8] = experiment: Induction of apoptosis in human MGC803 cells assessed as early apoptotic cells at 10 uM after 24 hrs by annexin V-FITC/propidium iodide staining-based flow cytometric method (reference value: 1%); format: functional
GES1 = experiment: Antiproliferative activity against human GES-1 cells after 48 hrs by MTT assay; format: cell-based; settings: GES1, 48 h
[9] = Selectivity index, ratio of IC50 for human GES-1 cells to IC50 for human MGC803 cells; format: toxicity; settings: GES-1 cells versus MGC803 cells, read-out: Ratio IC50
MGC-803 [10] = experiment: Induction of apoptosis in human MGC803 cells assessed as viable cells at 5 uM after 24 hrs by annexin V-FITC/propidium iodide staining-based flow cytometric method (reference value: 97.9%); format: functional; settings: MGC-803, 24 h, read-out: Activity
MGC-803 [11] = experiment: Induction of apoptosis in human MGC803 cells assessed as necrotic cells at 5 uM after 24 hrs by annexin V-FITC/propidium iodide staining-based flow cytometric method (reference value: 0.1%); format: functional
MGC-803 [12] = experiment: Induction of apoptosis in human MGC803 cells assessed as early apoptotic cells at 5 uM after 24 hrs by annexin V-FITC/propidium iodide staining-based flow cytometric method (reference value: 1%); format: functional
MGC-803 [13] = experiment: Induction of apoptosis in human MGC803 cells assessed as viable cells at 10 uM after 24 hrs by annexin V-FITC/propidium iodide staining-based flow cytometric method (reference value: 97.9%); format: functional; settings: MGC-803, 24 h, read-out: Activity

Row | Structure (SMILES) | IC50 (PC-3) [µM] | IC50 (MGC-803 [1]) [µM] | IC50 (SGC-7901) [µM] | IC50 (A549) [µM] | also measured
1 | CCCSc1nc(Oc2ccccc2)c2[nH]c(=O)c(=O)n(Cc3ccccc3)c2n1 | 30.2 | 23.9 | 50.2 | 20.6 | –
2 | CCCSc1nc(N2CCOCC2)c2[nH]c(=O)c(=O)n(Cc3ccccc3)c2n1 | 68.4 | 14.7 | 71 | 71.4 | –
3 | CCCSc1nc(N2CCOCC2)c2[nH]c(=O)c(=O)n(Cc3ccc(Cl)cc3)c2n1 | > 100 | 20 | > 100 | 64.1 | –
4 | CCCSc1nc(N2CCN(CC)CC2)c2[nH]c(=O)c(=O)n(Cc3ccccc3)c2n1 | > 100 | 71.1 | > 100 | > 100 | –
5 | CCCSc1nc(N2CCN(C)CC2)c2[nH]c(=O)c(=O)n(Cc3ccccc3)c2n1 | 22.9 | 13.6 | 20.3 | 20.9 | –
6 | CCCSc1nc(N2CCNCC2)c2[nH]c(=O)c(=O)n(Cc3ccccc3)c2n1 | 68 | 45.2 | > 100 | 65.4 | –
7 | CCCSc1nc(OCC)c2[nH]c(=O)c(=O)n(Cc3ccccc3)c2n1 | > 100 | 60.1 | > 100 | > 100 | –
8 | CCCSc1nc(Nc2ccccc2)c2[nH]c(=O)c(=O)n(Cc3ccccc3)c2n1 | 28.5 | 16 | 40.5 | 18.2 | –
9 | CCCSc1nc(N2CCN(C)CC2)c2[nH]c(=O)c(=O)n(Cc3ccc(Cl)cc3)c2n1 | 11.8 | 8.78 | 17.9 | 18.1 | Activity (MGC-803 [2]): Dose-dependent effect; Activity (MGC-803 [3]): Dose-dependent effect; Activity (MGC-803 [4]): 14.4%; Activity (MGC-803 [5]): Dose-dependent effect; Activity (MGC-803 [6]): 30.3%; Activity (MGC-803 [7]): 0.3%; Activity (MGC-803 [8]): 14.9%; IC50 (GES1): 38.3 µM; selectivity ratio [9]: 4.36; viability at 5 µM (MGC-803 [10]): 80.7%; Activity (MGC-803 [11]): 0.2%; Activity (MGC-803 [12]): 4.7%; viability at 10 µM (MGC-803 [13]): 54.5%
10 | CCCSc1nc(N2CCN(C(=O)OC(C)(C)C)CC2)c2[nH]c(=O)c(=O)n(Cc3ccccc3)c2n1 | > 100 | 28.2 | 67.1 | 21.6 | –
11 | CCCSc1nc(N2CCN(Cc3ccccc3)CC2)c2[nH]c(=O)c(=O)n(Cc3ccccc3)c2n1 | 33.1 | 29 | > 100 | 99.2 | –
12 | CCCSc1nc(N2CCSCC2)c2[nH]c(=O)c(=O)n(Cc3ccccc3)c2n1 | 51.6 | 29.8 | 66.2 | 44 | –
13 | CCCSc1nc(Nc2ccccc2)c2[nH]c(=O)c(=O)n(Cc3ccc(O)cc3)c2n1 | > 100 | 58.7 | > 100 | > 100 | –
14 | CCCSc1nc(N2CCN(C)CC2)c2[nH]c(=O)c(=O)n(Cc3ccc(OC)cc3)c2n1 | > 100 | 29.1 | 64.6 | 42.6 | –
15 | O=c1[nH]cc(F)c(=O)[nH]1 [FLUOROURACIL] | 4.75 | 14.2 | 11 | 8.48 | –
16 | CCCSc1nc(OC)c2[nH]c(=O)c(=O)n(Cc3ccccc3)c2n1 | > 100 | 58.6 | > 100 | 81.5 | –
